# Test results from US7879876B2, “Sulfonamide derivatives and use thereof for the modulation of metalloproteinases” (Merck Serono SA, priority 2005, dated 2011).
# Experiments:
# Format in all cases: biochemical
# gelatinase A (MMP-2) = molecular target: T1, gelatinase A (MMP-2) (Homo sapiens, UniProt P08253); assay: MMP-2 enzyme inhibition assay (coumarin-labelled peptide substrate); settings: read-out: IC50 MMP2
# T1 sequence (P08253 110-660): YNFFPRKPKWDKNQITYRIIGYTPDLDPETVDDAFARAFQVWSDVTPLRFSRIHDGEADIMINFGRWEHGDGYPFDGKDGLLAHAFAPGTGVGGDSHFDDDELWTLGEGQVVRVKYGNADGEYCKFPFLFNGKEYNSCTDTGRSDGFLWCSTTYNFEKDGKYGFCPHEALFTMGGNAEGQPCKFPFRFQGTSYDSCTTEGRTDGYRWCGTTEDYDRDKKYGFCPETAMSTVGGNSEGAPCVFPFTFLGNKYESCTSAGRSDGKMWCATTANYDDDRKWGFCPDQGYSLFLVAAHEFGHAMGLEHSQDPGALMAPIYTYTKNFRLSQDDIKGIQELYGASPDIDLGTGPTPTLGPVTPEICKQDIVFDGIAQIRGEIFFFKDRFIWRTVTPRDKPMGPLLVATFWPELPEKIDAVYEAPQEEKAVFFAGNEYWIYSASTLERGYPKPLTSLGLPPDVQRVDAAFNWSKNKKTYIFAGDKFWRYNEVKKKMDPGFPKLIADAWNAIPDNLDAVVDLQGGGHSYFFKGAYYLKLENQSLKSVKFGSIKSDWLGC
# Protocol: Compounds of the invention were tested to assess their activities as inhibitors of MMP-1, MMP-2, MMP-9, MMP-14, MMP-12 and TACE. MMP-9 Assay Protocol […]
# (§1) Stock solutions were made up as follows: Assay Butter: 100 mM Tris-HCl pH 7.6 containing 100 mM NaCl, 10 mM CaCl2, and 0.05% Brij 35.
# Substrate: 0.4 mM McaPLGLDpaAR (from Bachem) (0.437 mg/ml) stock solution in 100% DMSO (stored at −20° C.). Dilute to 8 μM in assay butter. […]
# (§2) Test Compounds were prepared initially as 10 mM compound solution in 100% DMSO, diluted to 1 mM in 100% DMSO, then serially diluted 3-fold in 100% DMSO across columns 1-10 of a 96-well microtitre plate Assay concentration range, 100 μM (column 1) to 5.1 nM (column 10).
# (§3) The assay was performed in a total volume of 100 μL per well in 96-well microtitre plates. Activated enzyme (20 μL) was added to the wells followed by 20 μL of assay butter. Appropriate concentrations of test compounds dissolved in 10 μL of DMSO were then added followed by 50 μL of McaPLGLDpaAR (8 μM, prepared by dilution of DMSO stock in assay butter). For each as say ten concentrations of test compound were examined in duplicate. Control wells lack either enzyme or test compound. The reactions were incubated at 37° C. for 2 hours. The fluorescence at 405 nm was measured immediately with an SLT Fluostar fluorometer (SL T Labinstruments GmbH, Grödig, Austria) using 320 nm excitation, without stopping the reaction.
# (§4) The effect of the test compound was determined from the dose response curve generated by the 10 duplicate concentrations of inhibitor. The IC50 (the concentration of compound required to give a 50% decrease in enzyme activity) was obtained by fitting data to the equation, Y=a+((b−a)/(1+(c/X)^d)). (Y=inhibition achieved for a particular dose; X=the dose in nM; a=minimum y or zero % inhibition; b=maximum y or 100% inhibition; c=is the IC50; d=is the slope). The result was rounded to one significant figure.
# (§5) Compounds of the invention were tested for inhibitory activity against gelatinase A (MMP-2) in an assay using a coumarin-labelled peptide substrate, (7-methoxycoumarin-4-yl)acetyl-Pro-Leu-Gly-Leu-(3-[2,4-dinitrophenyl]-L-2,3diaminopropionyl)-Ala-Arg-NH2 (Mca PLGLDpaAR) (Knight et al, 1992, above). The protocol for this assay was as described for the MMP-9 assay above.
# MMP-14 = MMP-14 (Homo sapiens, UniProt P50281); assay: MMP-14 enzyme inhibition assay (coumarin-labelled peptide substrate); settings: read-out: percentage inhibition MMP14
# Protocol: (§6) Compounds of the invention were tested to assess their activities as inhibitors of MMP-1, MMP-2, MMP-9, MMP-14, MMP-12 and TACE. MMP-9 Assay Protocol
# (§7) Compounds of the invention were tested for inhibitory activity against 92 kDa gelatinase (MMP-9) in an assay using a coumarin-labeled peptide substrate, (7-methoxycoumarin-4-yl)acetyl-Pro-Leu-Gly-Leu-(3-[2,4-dinitrophenyl]-L-2,3diaminopropionyl)-Ala-Arg-NH2 (McaPLGLDpaAR) (Knight et al, FEBS Lett. 1992; 263-266).
# as §1
# (§8) Substrate: 0.4 mM McaPLGLDpaAR (from Bachem) (0.437 mg/ml) stock solution in 100% DMSO (stored at −20° C.). Dilute to 8 μM in assay butter.
# (§9) Enzyme: Recombinant human 92 kDa gelatinase (MMP-9; APMA (4-aminophenyl mercuric acetate)-activated if necessary) appropriately diluted in assay butter.
# as §2, §3, §4
# as §5, with “MMP-14” for “gelatinase A (MMP-2)”, “PLGLD paAR)” for “PLGLDpaAR)”
# metalloelastase (MMP-12) = metalloelastase (MMP-12) (Homo sapiens, UniProt P39900); assay: MMP-12 enzyme inhibition assay (coumarin-labelled peptide substrate); settings: read-out: IC50 MMP12
# Protocol: as §6, §7, §1, §8, §9, §2, §3, §4
# Compounds of the invention were tested for inhibitory activity against metalloelastase (MMP-12) in an assay using a coumarin-labelled peptide substrate, (7-methoxycoumarin-4-yl)acetyl-Pro-Leu-Gly-Leu-(3-[2,4-dinitrophenyl]-L-2,3-diaminopropionyl)-Ala-Arg-NH2 (McaPLGLDpaAR) (Knight et al, 1992, above). The protocol for this assay was as described for the MMP-9 assay above.
# [1] = molecular target: 92 kDa gelatinase (MMP-9) (Homo sapiens, UniProt P14780); assay: MMP-9 enzyme inhibition assay (coumarin-labeled peptide substrate); settings: read-out: IC50 MMP9
# Protocol: as §6, §7, §1, §8, §9, §2, §3, §4
# collagenase (MMP-1) = molecular target: T2, collagenase (MMP-1) (Homo sapiens, UniProt P03956); assay: MMP-1 enzyme inhibition assay (coumarin-labelled peptide substrate); settings: @ 5 μM; read-out: percentage inhibition MMP1
# T2 sequence (P03956 100-469): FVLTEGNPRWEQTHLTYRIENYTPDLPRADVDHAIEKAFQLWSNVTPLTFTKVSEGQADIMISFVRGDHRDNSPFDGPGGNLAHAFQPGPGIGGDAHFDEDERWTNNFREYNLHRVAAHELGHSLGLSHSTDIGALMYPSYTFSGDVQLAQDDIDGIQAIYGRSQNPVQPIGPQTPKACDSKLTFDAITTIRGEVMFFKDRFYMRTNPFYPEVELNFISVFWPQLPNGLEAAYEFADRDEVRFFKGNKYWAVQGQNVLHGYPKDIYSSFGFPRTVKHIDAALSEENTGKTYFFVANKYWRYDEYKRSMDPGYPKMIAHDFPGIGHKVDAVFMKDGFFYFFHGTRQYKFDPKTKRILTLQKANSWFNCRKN
# Protocol: as §6, §7, §1, §8, §9, §2, §3, §4
# as §5, with “collagenase (MMP-1)” for “gelatinase A (MMP-2)”
# Sequence of 92 kDa gelatinase (MMP-9) (P14780 107-707 limits assumed): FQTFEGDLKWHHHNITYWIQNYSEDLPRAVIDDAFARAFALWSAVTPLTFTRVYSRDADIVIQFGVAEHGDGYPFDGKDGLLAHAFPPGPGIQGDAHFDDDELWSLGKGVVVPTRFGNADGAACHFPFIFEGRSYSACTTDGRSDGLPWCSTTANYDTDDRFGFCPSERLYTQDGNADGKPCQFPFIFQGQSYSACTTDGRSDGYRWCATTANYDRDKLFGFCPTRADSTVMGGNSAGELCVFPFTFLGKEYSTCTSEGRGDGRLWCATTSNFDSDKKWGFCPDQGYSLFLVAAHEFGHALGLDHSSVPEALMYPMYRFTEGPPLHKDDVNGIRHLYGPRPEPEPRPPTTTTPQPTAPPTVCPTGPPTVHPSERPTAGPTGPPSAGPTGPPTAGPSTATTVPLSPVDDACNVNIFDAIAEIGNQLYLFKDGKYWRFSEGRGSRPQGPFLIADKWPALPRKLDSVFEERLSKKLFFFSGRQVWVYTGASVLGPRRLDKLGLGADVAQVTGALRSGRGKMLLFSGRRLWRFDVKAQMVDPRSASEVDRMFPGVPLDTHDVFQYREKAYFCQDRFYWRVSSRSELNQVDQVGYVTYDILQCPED
# Sequence of metalloelastase (MMP-12) (P39900 106-470): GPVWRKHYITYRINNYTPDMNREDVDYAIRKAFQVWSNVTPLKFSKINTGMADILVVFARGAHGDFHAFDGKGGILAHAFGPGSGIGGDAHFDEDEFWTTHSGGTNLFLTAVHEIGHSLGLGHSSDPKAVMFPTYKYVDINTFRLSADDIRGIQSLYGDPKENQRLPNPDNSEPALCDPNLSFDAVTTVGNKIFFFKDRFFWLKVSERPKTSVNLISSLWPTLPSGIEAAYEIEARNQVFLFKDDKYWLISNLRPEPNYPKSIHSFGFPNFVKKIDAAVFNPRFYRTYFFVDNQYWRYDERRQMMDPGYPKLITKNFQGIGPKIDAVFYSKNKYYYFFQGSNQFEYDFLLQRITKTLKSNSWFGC
SMILES,IC50 (gelatinase A (MMP-2)) [µM],inhibition at 0.1 µM (MMP-14; @ 0.1 μM) [%],IC50 (metalloelastase (MMP-12)) [nM],inhibition at 5 µM (MMP-14) [%],IC50 [1] [µM],inhibition at 5 µM (collagenase (MMP-1)) [%]
"CC(C)(C)OC(=O)N1CCC[C@@H]1[C@H](CS(=O)(=O)N1CCc2cc(Cl)c(Cl)cc2C1)N(O)C=O (racemic) [Example 46, tert-butyl (2RS)-2-{(1RS)-2-[(6,7-dichloro-3,4-dihydro-isoquinolin-2(1H)-yl)sulfonyl]-1-[formyl(hydroxy)amino]ethyl}pyrrolidine-1-carboxylate]",≥ 5,19,460,,,
"CCC(CC)C(CS(=O)(=O)N1CCc2cc(OC)c(OC)cc2C1)N(O)C=O (centres unmarked) [Example 17, N-(1-{[(6,7-dimethoxy-3,4-dihydroisoquinolin-2(1H)-yl)sulfonyl]methyl}-2-ethylbutyl)-N-hydroxyformamide]",> 5,,103,0,> 5,0
"CC(C)CC(CS(=O)(=O)N1CCc2ccc(OC(C)C)cc2C1)N(O)C=O (centres unmarked) [Example 51, N-hydroxy-N-(1-{[(7-isopropoxy-3,4-dihydroisoquinolin-2(1H)-yl)sulfonyl]methyl}-3-methylbutyl)formamide]",1.33,,109,,,
"CC(C)(C)c1ccc2c(c1)CN(S(=O)(=O)CC(C1CCOCC1)N(O)C=O)CC2 (centres unmarked) [Example 66, N-[2-[(7-tert-butyl-3,4-dihydroisoquinolin-2(1H)-yl)sulfonyl]-1-(tetrahydro-2H-pyran-4-yl)ethyl]-N-hydroxyformamide]",> 5,,209,,,
"CCOC(=O)C1CC1C(CS(=O)(=O)N1CCc2cc(OC)c(OC)cc2C1)N(O)C=O (centres unmarked) [Example 67, ethyl 2-[2-[(6,7-dimethoxy-3,4-dihydroisoquinolin-2(1H)-yl)sulfonyl]-1-[formyl(hydroxy)amino]ethyl]cyclopropanecarboxylate]",> 5,,111,,,
"COc1cc2c(cc1OC)CN(S(=O)(=O)CC(C1CC1)N(O)C=O)CC2 (centres unmarked) [Example 84, N-{1-cyclopropyl-2-[(6,7-dimethoxy-3,4-dihydro-isoquinolin-2(1H)-yl)sulfonyl]ethyl}-N-hydroxyformamide]",> 5,,366,,,

# Second part, the compound after the results:
IC50 (gelatinase A (MMP-2)) [µM],inhibition at 0.1 µM (MMP-14; @ 0.1 μM) [%],IC50 (metalloelastase (MMP-12)) [nM],inhibition at 5 µM (MMP-14) [%],IC50 [1] [µM],inhibition at 5 µM (collagenase (MMP-1)) [%],SMILES
0.784,,18,71,> 5,31,"O=CN(O)C(CS(=O)(=O)N1CCc2ccccc2C1)c1ccsc1 (centres unmarked) [Example 7, N-[2-(3,4-dihydroisoquinolin-2(1H)-ylsulfonyl)-1-(3-thienyl)ethyl]-N-hydroxyformamide]"
> 5,,185,0,> 5,0,"COc1cc2c(cc1OC)CN(S(=O)(=O)CC(C1CCCC1)N(O)C=O)CC2 (centres unmarked) [Example 15, N-{1-cyclopentyl-2-[(6,7-dimethoxy-3,4-dihydroisoquinolin-2(1H)-yl)sulfonyl]ethyl}-N-hydroxyformamide]"
> 5,,234,,,,"CSCCC(CS(=O)(=O)N1CCc2ccc(C(C)(C)C)cc2C1)N(O)C=O (centres unmarked) [Example 54, N-[1-{[(7-tert-butyl-3,4-dihydroisoquinolin-2(1H)-yl)-sulfonyl]methyl}-3-(methylthio)propyl]-N-hydroxyformamide]"
> 5,,585,,,,"COc1cc2c(cc1OC)CN(S(=O)(=O)CC(C1CC1C(=O)O)N(O)C=O)CC2 (centres unmarked) [Example 71, 2-[2-[(6,7-dimethoxy-3,4-dihydroisoquinolin-2(1H)-yl)-sulfonyl]-1-[formyl(hydroxy)amino]ethyl]cyclopropanecarboxylic acid]"
> 5,,322,,,,"CC(C)Oc1ccc2c(c1)CN(S(=O)(=O)CC(C1CCCC1)N(O)C=O)CC2 (centres unmarked) [Example 78, N-{1-cyclopentyl-2-[(7-isopropoxy-3,4-dihydroisoquinolin-2(1H)-yl)sulfonyl]ethyl}-N-hydroxyformamide]"
